The record followed here is patent publication US20260297542A1, “HERBICIDE RESISTANT PLANTS” (SYNGENTA CROP PROTECTION AG, priority 2023, published 2026).

The target in experiment [1] is T1, AtPPO1 V365L Y426V L479N (SEQ ID NO.126) (Arabidopsis thaliana, UniProt P55826, L479N/V365L/Y426V).
T1 construct: made in house; host or cells: E. coli BL21 (DE3) hemG, crude extract
T1 sequence (P55826 35-537 V365L/Y426V/L479N): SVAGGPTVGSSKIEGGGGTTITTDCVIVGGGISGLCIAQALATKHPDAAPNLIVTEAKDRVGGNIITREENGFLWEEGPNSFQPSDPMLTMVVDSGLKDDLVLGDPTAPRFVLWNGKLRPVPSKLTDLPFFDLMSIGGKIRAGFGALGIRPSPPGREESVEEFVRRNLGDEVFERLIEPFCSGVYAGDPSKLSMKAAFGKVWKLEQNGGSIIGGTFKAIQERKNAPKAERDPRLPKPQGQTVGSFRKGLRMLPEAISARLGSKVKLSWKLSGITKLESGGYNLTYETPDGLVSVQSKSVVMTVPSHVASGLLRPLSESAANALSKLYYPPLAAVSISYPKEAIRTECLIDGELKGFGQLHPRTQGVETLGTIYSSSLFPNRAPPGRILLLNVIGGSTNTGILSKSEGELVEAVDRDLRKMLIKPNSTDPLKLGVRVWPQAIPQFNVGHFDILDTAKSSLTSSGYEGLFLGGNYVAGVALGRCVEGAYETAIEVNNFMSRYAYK
As to the kind of experiment: fluorescent Protoporphyrinogen Oxidase assay, crude extract. It counts as biochemical. The following applies: read-out: percentage inhibition.

Experiment [2] concerns the target T2, AtPPO1 S305L Y362F G404A (SEQ ID NO.129) (Arabidopsis thaliana, UniProt P55826, G404A/S305L/Y362F).
T2 construct: made in house; host or cells: E. coli BL21 (DE3) hemG, crude extract
T2 sequence (P55826 35-537 S305L/Y362F/G404A): T1 sequence (P55826 35-537 V365L/Y426V/L479N) with S271L, Y328F, L331V, G370A, V392Y, N445L
The experiment is described as above. The format is biochemical. Conditions: read-out: percentage inhibition.

Residue numbers refer to the chain shown, from its start.

As for `CCOC(=O)COc1ncccc1Oc1cc(-n2c(=O)cc(C(F)(F)F)n(C)c2=O)c(F)cc1Cl` [Herbicide A, epyrifenacil], in experiment [1], the inhibition (usually the percentage by which the read-out fell short of the control) at 0.1 ppm was determined as 0%, the inhibition at 1 ppm amounted to 36%, the inhibition at 10 ppm was 73% and the inhibition at 100 ppm was 90%. Also, in experiment [2], the inhibition at 0.1 ppm stood at 25%, the inhibition at 1 ppm was 78%, the inhibition at 10 ppm came out at 92% and the inhibition at 100 ppm is 100%.

As for `C#CCN1C(=O)C(F)(F)Oc2cc(F)c(-n3c(=O)n(C)c(=S)n(C)c3=O)cc21` [Herbicide B, trifludimoxazin], in experiment [1], the inhibition at 0.1 ppm stood at 98%, the inhibition at 1 ppm amounted to 100%, the inhibition at 10 ppm was found to be 100% and the inhibition at 100 ppm was 100%. Further, in experiment [2], the inhibition at 0.1 ppm came to 70%, the inhibition at 1 ppm was found to be 93%, the inhibition at 10 ppm was 97% and the inhibition at 100 ppm came to 100%.

Turning to `CCOC(=O)C1(C)CC(c2cc(-n3c(=O)cc(C(F)(F)F)n(C)c3=O)c(F)cc2Cl)=NO1` (stereo not shown) [Herbicide C, 3-(2-chloro-4-fluoro-5-(3-methyl-2,6-dioxo-4-trifluoromethyl-3,6-dihydropyrimidin-1(2H)-yl)phenyl)-5-methyl-4,5-dihydroisoxazole-5-carboxylic acid ethyl ester], in experiment [1], the inhibition at 0.1 ppm was found to be 4%, the inhibition at 1 ppm amounted to 44%, the inhibition at 10 ppm stood at 82% and the inhibition at 100 ppm is 93%. Also, in experiment [2], the inhibition at 0.1 ppm was determined as 24%, the inhibition at 1 ppm was determined as 76%, the inhibition at 10 ppm amounted to 93% and the inhibition at 100 ppm was determined as 100%.

For the compound `CCOC(=O)[C@]1(C)CC(c2cc(-n3c(=O)n(C)c(=S)n(C)c3=O)c(F)cc2Cl)=NO1` [Herbicide D, ethyl (5S)-3-[2-chloro-5-(3,5-dimethyl-2,6-dioxo-4-thioxo-1,3,5-triazinan-1-yl)-4-fluoro-phenyl]-5-methyl-4H-isoxazole-5-carboxylate], in experiment [1], the inhibition at 0.1 ppm turned out to be 12%, the inhibition at 1 ppm worked out at 33%, the inhibition at 10 ppm worked out at 89% and the inhibition at 100 ppm was found to be 98%. For the same compound, in experiment [2], the inhibition at 0.1 ppm came to 9%, the inhibition at 1 ppm was found to be 45%, the inhibition at 10 ppm was found to be 83% and the inhibition at 100 ppm is 96%.

As for `CC(C)N(C)S(=O)(=O)NC(=O)c1cc(-n2c(=O)cc(C(F)(F)F)n(C)c2=O)c(F)cc1Cl` [Herbicide E, saflufenacil], in experiment [1], the inhibition at 0.1 ppm was 0%, the inhibition at 1 ppm turned out to be 22%, the inhibition at 10 ppm stood at 77% and the inhibition at 100 ppm came to 94%. Further, in experiment [2], the inhibition at 0.1 ppm turned out to be 15%, the inhibition at 1 ppm is 53%, the inhibition at 10 ppm is 84% and the inhibition at 100 ppm was determined as 100%.
